According to US20260103581A1, “PROCESS FOR GRANULATING AZO COMPOUNDS AND GRANULES OBTAINED” (ARKEMA FRANCE, priority 2022, published 2026):
In brackets after ≈: the same amount, converted by molar mass.

What was measured:
[1] = Granule dissolution test in acetone; format: physicochemical; conditions: 13 g AZDN in 100 ml acetone, room temperature, 100 rpm, visual
Description: A granule dissolution test is carried out at room temperature. A glass Erlenmeyer flask fitted with a magnetic stirring bar is placed on a magnetic stirrer. With the stirring stopped, 13 g of AZDN are introduced into the Erlenmeyer flask. 100 ml of acetone are then introduced quickly and stirring is started (100 rpm). The time taken until, visually, undissolved AZDN crystals are no longer seen is recorded.
Commercial recrystallized AZDN (130-257-438 microns/dv 10-50-90), AZDN granules prepared and dried as obtained above, and the dry powdered AZDN used in Example 1 are compared.

[2] = physchem
Description: The aqueous phase is decanted and then analysed by gas chromatography in order to determine the binder content in g/L, corresponding to its solubility.
The aqueous phase is decanted and then analysed by gas chromatography to determine the concentration of organic binder.

[3] = physchem; conditions: 20 °C, organic solvent or mixture, thermodynamic from solid
Description: (§1) The bottle is shaken for a period of between 1 h and 10 h, for example 6 h. After decantation, said binder is analysed to determine its content of compound of formula (I): this content corresponds to the solubility of the azo compound in the organic binder in g/L. The analysis is carried out by gas chromatography.
(§2) The bottle is shaken for approximately 6 h. After decantation, the organic binder is analysed to determine its AZDN concentration. The analysis is carried out by gas chromatography with an injector temperature set at 220° C. (under these conditions, AZDN is essentially transformed into tetramethylsuccinonitrile in the injector).

[4] = Measurement of the solubility of AZDN in the organic binder; conditions: 20 °C, organic solvent or mixture, thermodynamic from solid
Description: as §1, §2

[5] = 20 °C, water, thermodynamic from solid
[6] = water, 20 °C, thermodynamic from solid

CC(C)(C#N)N=NC(C)(C)C#N [Dry AZDN powder, 2,2′-azobis(isobutyronitrile)]
Dissolution time [1]: 15 s

Cc1cccc(C)c1 [meta-Xylene]
solubility at 1 h [2, 5]: < 0.5 mg/mL

CC(C)(C#N)N=NC(C)(C)C#N [AZDN, 2,2′-azobis(isobutyronitrile)]
solubility at 6 h ([3]; diethyl carbonate): 85 mg/mL (≈ 518 mM)
solubility at 6 h ([3]; n-butyl acetate): 59 mg/mL (≈ 359 mM)
solubility at 6 h ([4]; isobutyl acetate): 59 mg/mL (≈ 359 mM)
solubility at 6 h ([4]; meta-xylene): 25 mg/mL (≈ 152 mM)
solubility at 6 h ([4]; methoxycyclopentane (CPME)): 30.5 mg/mL (≈ 186 mM)
solubility at 6 h ([4]; methyl isobutyl ketone): 75.5 mg/mL (≈ 460 mM)
solubility at 6 h ([4]; methyl pentyl ketone): 45 mg/mL (≈ 274 mM)
solubility at 6 h ([4]; toluene): 60 mg/mL (≈ 365 mM)

CC(=O)CC(C)C [Methyl isobutyl ketone]
solubility at 1 h [2, 6]: 20 mg/mL (≈ 200 mM)

CC(C)(C#N)N=NC(C)(C)C#N [Recrystallized AZDN, 2,2′-azobis(isobutyronitrile), reference compound]
Dissolution time [1]: 35 s

CCCCOC(C)=O [n-Butyl acetate]
solubility at 1 h [2, 5]: 7 mg/mL

CCCCCC(C)=O [Methyl pentyl ketone]
solubility at 1 h [2, 6]: 5 mg/mL (≈ 43.8 mM)

COC1CCCC1 [Methoxycyclopentane]
solubility at 1 h [2, 6]: 12.5 mg/mL (≈ 125 mM)

CC(=O)OCC(C)C [Isobutyl acetate]
solubility at 1 h [2, 6]: 7 mg/mL
